Experiments:
Assay type in all cases: functional
Trypanosoma brucei [1] = assay: Antiprotozoal activity against bloodstream form of wild type Trypanosoma brucei after 16 hrs by Alamar Blue assay
Trypanosoma brucei [2] = assay: Resistance factor, ratio of EC50 for 5FU resistant Trypanosoma brucei to EC50 for wild type Trypanosoma brucei
Leishmania mexicana [3] = assay: Resistance factor, ratio of EC50 for 5FU resistant Leishmania mexicana to EC50 for wild type Leishmania mexicana
Trypanosoma brucei [4] = assay: Resistance factor, ratio of EC50 for PYR6-5 deficient bloodstream form of 5-FU hypersensitive Trypanosoma brucei to EC50 for wild type Trypanosoma brucei
Trypanosoma brucei [5] = assay: Antiprotozoal activity against bloodstream form of 5FU resistant Trypanosoma brucei after 16 hrs by Alamar Blue assay
Trypanosoma brucei [6] = assay: Antiprotozoal activity against PYR6-5 deficient bloodstream form of 5-FU hypersensitive Trypanosoma brucei after 16 hrs by Alamar Blue assay
Trypanosoma brucei [7] = assay: Resistance factor, ratio of EC50 for multi-drug resistant Trypanosoma brucei B48 to EC50 for wild type Trypanosoma brucei
Leishmania mexicana [8] = assay: Antileishmanial activity against 5FU resistant Leishmania mexicana after 16 hrs by Alamar Blue assay
Trypanosoma brucei [9] = assay: Antiprotozoal activity against bloodstream form of multi-drug resistant Trypanosoma brucei B48 after 16 hrs by Alamar Blue assay; conditions: B48, 16 h
Leishmania mexicana [10] = assay: Antileishmanial activity against wild type Leishmania mexicana after 16 hrs by Alamar Blue assay

Structure (SMILES) | EC50 (Trypanosoma brucei [1]) [µM] | Ratio EC50 (Trypanosoma brucei [2]) | Ratio EC50 (Leishmania mexicana [3]) | Ratio EC50 (Trypanosoma brucei [4]) | EC50 (Trypanosoma brucei [5]) [µM] | EC50 (Trypanosoma brucei [6]) [µM] | Ratio EC50 (Trypanosoma brucei [7]) | EC50 (Leishmania mexicana [8]) [µM] | EC50 (Trypanosoma brucei [9]) [µM] | EC50 (Leishmania mexicana [10]) [µM]
O=c1[nH]c(=O)n([C@H]2C=C[C@@H](O)C2)cc1Nc1ccccc1 | 28.1 | 0.49 | 1.01 | 0.76 | 13.8 | 21.4 | 1.1 | 95.3 | 30 | 94.1
Cc1cc(C)cc(Cn2c(=O)ccn([C@H]3C=C[C@@H](OC(=O)c4ccccc4)C3)c2=O)c1 | 15.2 | 0.82 | 0.94 | 1.05 | 12.4 | 15.9 | 1 | 38.6 | 15.7 | 41.3
Cc1cc(C)cc(C(=O)O[C@@H]2C=C[C@H](n3ccc(=O)n(C(=O)c4cc(C)cc(C)c4)c3=O)C2)c1 | 23.8 | 0.85 | 0.61 | 1.03 | 20.2 | 24.4 | 0.9 | 23.6 | 21.9 | 38.9
O=c1[nH]c(=O)n([C@H]2C=C[C@@H](O)C2)cc1Br | 37.3 | 0.87 | 1 | 0.96 | 32.4 | 35.7 | 1 | 97.3 | 36.7 | 97.4
O=C(O[C@@H]1C=C[C@H](n2cc(Br)c(=O)[nH]c2=O)C1)c1ccccc1 | 29.8 | 0.59 | 1.02 | 0.85 | 17.7 | 25.3 | 0.8 | 91.9 | 23.9 | 90.4
COc1ccc(Cn2c(=O)cc(C)n([C@H]3C=C[C@@H](OC(=O)c4ccccc4)C3)c2=O)cc1 | 30.5 | 0.66 | 1.29 | 0.93 | 20.3 | 28.3 | 0.9 | 43.6 | 27.2 | 33.8
N#Cc1cccc(C(=O)O[C@@H]2C=C[C@H](n3ccc(=O)[nH]c3=O)C2)c1 | 37.8 | 0.83 | 1.02 | 0.92 | 31.3 | 34.9 | 1 | 96.3 | 36.4 | 94.7
Cc1ccc(Nc2cn([C@H]3C=C[C@@H](O)C3)c(=O)[nH]c2=O)cc1 | 31.7 | 0.54 | 1.02 | 0.78 | 17.1 | 24.7 | 1 | 96.7 | 31 | 94.6
O=C(O[C@@H]1C=C[C@H](n2ccc(=O)[nH]c2=O)C1)c1cc(Cl)cc(Cl)c1 | 33.2 | 0.8 | 1.1 | 0.95 | 26.7 | 31.6 | 1 | 89.4 | 34.8 | 81.5
O=C(O[C@@H]1C=C[C@H](n2ccc(=O)n(Cc3ccccc3)c2=O)C1)c1ccccc1 | 29.1 | 0.72 | 1.34 | 0.95 | 21 | 27.7 | 0.9 | 46.3 | 25.5 | 34.5
N#Cc1cccc(C(=O)O[C@@H]2C=C[C@H](n3ccc(=O)n(Cc4ccccc4)c3=O)C2)c1 | 27.9 | 0.76 | 1.16 | 0.94 | 21.4 | 26.4 | 0.9 | 52.6 | 25 | 45.5
